From PubChem BioAssay AID248 (DTP/NCI, 2004)
“And” between values parts separate entries of the source, which are not always exact repeats. Equal values may be shown once. Toxic doses and inconclusive results are not listed.

Test system: L1210 leukemia ip in BDF1 mice, survival T/C
Assay: NCI In Vivo Anticancer Drug Screen. Data for tumor model L1210 Leukemia (intraperitoneal) in B6D2F1 (BDF1) mice
Details: endpoint: mean survival time, higher = longer survival
Summary of the method: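 Read-out is survival time, reported as the treated-group measurement over the vehicle-control measurement.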

[1] = dose: 100.0 mg/kg/injection, schedule: Q04DX002 (ip), vehicle: Klucel (hydroxypropylcellulose) (HPC)
[2] = dose: 200.0 mg/kg/injection, schedule: Q04DX002 (ip), vehicle: Klucel (hydroxypropylcellulose) (HPC)
[3] = dose: 100.0 mg/kg/injection, schedule: Q01DX009 (ip), vehicle: Klucel (hydroxypropylcellulose) (HPC)
[4] = dose: 200.0 mg/kg/injection, schedule: Q01DX009 (ip), vehicle: Klucel (hydroxypropylcellulose) (HPC)
[5] = dose: 400.0 mg/kg/injection, schedule: Q01DX009 (ip), vehicle: Klucel (hydroxypropylcellulose) (HPC)
[6] = dose: 50.0 mg/kg/injection, schedule: Q01DX009 (ip), vehicle: saline with Tween-80
[7] = dose: 100.0 mg/kg/injection, schedule: Q04DX003 (ip), vehicle: saline with Tween-80
[8] = dose: 200.0 mg/kg/injection, schedule: Q04DX003 (ip), vehicle: saline with Tween-80
[9] = dose: 100.0 mg/kg/injection, schedule: Q04DX003 (ip), vehicle: Klucel (hydroxypropylcellulose) (HPC)
[10] = dose: 200.0 mg/kg/injection, schedule: Q04DX003 (ip), vehicle: Klucel (hydroxypropylcellulose) (HPC)
[11] = dose: 400.0 mg/kg/injection, schedule: Q04DX003 (ip), vehicle: Klucel (hydroxypropylcellulose) (HPC)

For `CN(C)C1CS(=O)(=O)C1C1CS(=O)(=O)C1` (configuration not stated), the T/C [1] was 89 % of control, the T/C [2] was 86 % of control and the T/C (dose: 400.0 mg/kg/injection, schedule: Q04DX002 (ip), vehicle: Klucel (hydroxypropylcellulose) (HPC)) was 96 % of control.

`O=C(O)c1cc([N+](=O)[O-])c(C(=O)O)c([N+](=O)[O-])c1` was tested, and the T/C (dose: 75.0 mg/kg/injection, schedule: Q01DX001 (ip), vehicle: other) was 94 % of control, the T/C (dose: 150.0 mg/kg/injection, schedule: Q01DX001 (ip), vehicle: other) was 95 % of control and the T/C (dose: 300.0 mg/kg/injection, schedule: Q01DX001 (ip), vehicle: other) was 96 % of control.

With `CCOC1=NCCCCC1OC(C)=O` (configuration not stated) the T/C [3] was 107 % of control, the T/C [4] was 104 % of control and the T/C [5] was 95 % of control.

With `CC1CCC2C(C1)N(C(C)C)OC2(C)C` (configuration not stated) the T/C [6] was 104 % of control, the T/C (dose: 100.0 mg/kg/injection, schedule: Q01DX009 (ip), vehicle: saline with Tween-80) was 98 % of control and the T/C [7] was 108 % of control. For the same compound, the T/C [8] was 102 % of control.

`COC(=O)C1C(C(=O)OC)C2(Cl)C(Cl)=C(Cl)C1(Cl)C2(Cl)Cl` (configuration not stated) was tested, and the T/C [3] was 98 % of control and the T/C [4] was 104 % of control.

In the case of `CCN(CC)Cc1cc(Nc2cc(C)nc(Nc3ccc(Cl)c(Cl)c3)n2)ccc1OC`, the T/C (dose: 12.5 mg/kg/injection, schedule: Q01DX009 (ip), vehicle: saline with Tween-80) is reported as 98 % of control, the T/C (dose: 12.5 mg/kg/injection, schedule: Q04DX003 (ip), vehicle: saline with Tween-80) is reported as 98 % of control and the T/C (dose: 25.0 mg/kg/injection, schedule: Q01DX009 (ip), vehicle: saline with Tween-80) is reported as 105 % of control. For the same compound, the T/C (dose: 25.0 mg/kg/injection, schedule: Q04DX003 (ip), vehicle: saline with Tween-80) was 100 % of control, the T/C [6] was 110 % of control and the T/C (dose: 50.0 mg/kg/injection, schedule: Q04DX003 (ip), vehicle: saline with Tween-80) was 101 % of control.

For `Cc1ccc(S(=O)(=O)N/N=C/c2ccc(O)cc2)cc1`, the T/C (dose: 87.5 mg/kg/injection, schedule: Q04DX003 (ip), vehicle: Klucel (hydroxypropylcellulose) (HPC)) was 97 % of control, the T/C (dose: 175.0 mg/kg/injection, schedule: Q04DX003 (ip), vehicle: Klucel (hydroxypropylcellulose) (HPC)) was 105 % of control and the T/C (dose: 350.0 mg/kg/injection, schedule: Q04DX003 (ip), vehicle: Klucel (hydroxypropylcellulose) (HPC)) was 103 % of control.

In the case of `CCOC(=O)CC1c2nc3ccccc3cc2CN1C(=O)OCC` (configuration not stated), the T/C [9] is reported as 100 % of control, the T/C [10] is reported as 102 % of control and the T/C [11] is reported as 103 % of control.

`CCC1(Sc2ncnc3nc[nH]c23)C(=O)NC(=O)NC1=O` was tested, and the T/C (dose: 6.25 mg/kg/injection, schedule: Q01DX015 (ip), vehicle: alkali diluted with saline) was 124 % of control, the T/C (dose: 22.0 mg/kg/injection, schedule: Q01DX015 (ip), vehicle: saline) was 154 % of control and the T/C (dose: 33.0 mg/kg/injection, schedule: Q01DX015 (ip), vehicle: saline) was 157 % of control. For the same compound, the T/C (dose: 50.0 mg/kg/injection, schedule: Q01DX015 (ip), vehicle: saline) was 164 % of control, the T/C (dose: 75.0 mg/kg/injection, schedule: Q01DX015 (ip), vehicle: saline) was 183 % of control and the T/C (dose: 100.0 mg/kg/injection, schedule: Q01DX001 (ip), vehicle: alkali diluted with saline) was 103 % of control. The T/C (dose: 200.0 mg/kg/injection, schedule: Q01DX001 (ip), vehicle: alkali diluted with saline) was 106 % of control, the T/C (dose: 200.0 mg/kg/injection, schedule: Q01DX015 (ip), vehicle: alkali diluted with saline) was 166 % of control and the T/C (dose: 400.0 mg/kg/injection, schedule: Q01DX001 (ip), vehicle: alkali diluted with saline) was 114 % of control. The T/C (dose: 400.0 mg/kg/injection, schedule: Q01DX015 (ip), vehicle: alkali diluted with saline) was 109 % of control.

With `O=C1C(Cl)=CC(Cl)=C/C1=N/Cl` the T/C (dose: 25.0 mg/kg/injection, schedule: Q01DX001 (ip), vehicle: Klucel (hydroxypropylcellulose) (HPC)) was 110 % of control, the T/C (dose: 50.0 mg/kg/injection, schedule: Q01DX001 (ip), vehicle: Klucel (hydroxypropylcellulose) (HPC)) was 107 % of control and the T/C (dose: 100.0 mg/kg/injection, schedule: Q01DX001 (ip), vehicle: Klucel (hydroxypropylcellulose) (HPC)) was 95 % of control and 100 % of control.

`Cc1nc2nc3c(ncn3C3OC(CO)C(O)C3O)c(=O)n2nc1C` (configuration not stated) was tested, and the T/C (dose: 100.0 mg/kg/injection, schedule: Q01DX005 (ip), vehicle: saline) was 102 % of control and the T/C (dose: 200.0 mg/kg/injection, schedule: Q01DX005 (ip), vehicle: saline) was 92 % of control.

`CCN1CC1` was tested, and the T/C (dose: 6.25 mg/kg/injection, schedule: Q01DX009 (ip), vehicle: Klucel (hydroxypropylcellulose) (HPC)) was 98 % of control, the T/C (dose: 6.25 mg/kg/injection, schedule: Q04DX003 (ip), vehicle: Klucel (hydroxypropylcellulose) (HPC)) was 96 % of control and the T/C (dose: 12.5 mg/kg/injection, schedule: Q01DX009 (ip), vehicle: Klucel (hydroxypropylcellulose) (HPC)) was 107 % of control. For the same compound, the T/C (dose: 12.5 mg/kg/injection, schedule: Q04DX003 (ip), vehicle: Klucel (hydroxypropylcellulose) (HPC)) was 90 % of control and the T/C (dose: 25.0 mg/kg/injection, schedule: Q04DX003 (ip), vehicle: Klucel (hydroxypropylcellulose) (HPC)) was 109 % of control.

In the case of `CCOCCOCCOC(C)Oc1ccc(Cl)cc1` (configuration not stated), the T/C (dose: 100.0 mg/kg/injection, schedule: Q04DX002 (ip), vehicle: saline) is reported as 96 % of control, the T/C (dose: 200.0 mg/kg/injection, schedule: Q04DX002 (ip), vehicle: saline) is reported as 90 % of control and the T/C (dose: 400.0 mg/kg/injection, schedule: Q04DX002 (ip), vehicle: saline) is reported as 104 % of control.

In the case of `C=COCCCCCCCCCCCC(CCCCCC)OC=C` (configuration not stated), the T/C [1] is reported as 94 % of control and the T/C [2] is reported as 105 % of control.

`O=C1OCC/C1=C/OCCO/C=C1\CCOC1=O` was tested, and the T/C [1] was 94 % of control and the T/C [2] was 90 % of control.

For `Nc1nnn(CCO)n1`, the T/C (dose: 100.0 mg/kg/injection, schedule: Q04DX003 (ip), vehicle: saline sonified) was 105 % of control, the T/C (dose: 200.0 mg/kg/injection, schedule: Q04DX003 (ip), vehicle: saline sonified) was 102 % of control and the T/C (dose: 400.0 mg/kg/injection, schedule: Q04DX003 (ip), vehicle: saline sonified) was 96 % of control.

In the case of `CC(=O)c1cccc(NC(=O)Nc2ccccc2)c1`, the T/C [3] is reported as 94 % of control, the T/C [9] is reported as 100 % of control and the T/C [4] is reported as 98 % of control. For the same compound, the T/C [10] was 96 % of control, the T/C [5] was 100 % of control and the T/C [11] was 97 % of control.

For `O=C(Nc1ccccc1O)c1ccc(Cl)c(Cl)c1`, the T/C [3] was 100 % of control, the T/C [4] was 107 % of control and the T/C [5] was 102 % of control.

With `CCCC[N+](C)(C)CCOC(=O)C1C2CC3OC(=O)C1C3C2` (configuration not stated) the T/C (dose: 100.0 mg/kg/injection, schedule: Q04DX003 (ip), vehicle: saline) was 95 % of control.

With `O=c1[nH]cnc2ccc([N+](=O)[O-])cc12` the T/C (dose: 50.0 mg/kg/injection, schedule: Q04DX003 (ip), vehicle: Klucel (hydroxypropylcellulose) (HPC)) was 101 % of control and the T/C [9] was 103 % of control.

For `Cc1ccc(C#N)cc1.Cc1ccc(C#N)cc1.[Cl][Pt][Cl]`, the T/C (dose: 6.25 mg/kg/injection, schedule: Q04DX003 (ip), vehicle: water) was 109 % of control, the T/C (dose: 12.5 mg/kg/injection, schedule: Q04DX003 (ip), vehicle: water) was 109 % of control and the T/C (dose: 25.0 mg/kg/injection, schedule: Q04DX003 (ip), vehicle: water) was 106 % of control. The T/C (dose: 50.0 mg/kg/injection, schedule: Q04DX003 (ip), vehicle: water) was 105 % of control.

In the case of `OCc1ccn2c1C(O)CC2` (configuration not stated), the T/C (dose: 29.0 mg/kg/injection, schedule: Q01DX009 (ip), vehicle: saline) is reported as 100 % of control, the T/C (dose: 45.0 mg/kg/injection, schedule: Q01DX009 (ip), vehicle: saline) is reported as 115 % of control and the T/C [7] is reported as 108 % of control. For the same compound, the T/C (dose: 150.0 mg/kg/injection, schedule: Q01DX009 (ip), vehicle: saline) was 111 % of control, the T/C [8] was 117 % of control and the T/C (dose: 400.0 mg/kg/injection, schedule: Q04DX003 (ip), vehicle: saline with Tween-80) was 97 % of control.

`CNC(=O)Oc1cccc(CN(C)C)c1` was tested, and the T/C (dose: 5.0 mg/kg/injection, schedule: Q01DX001 (ip), vehicle: saline) was 98 % of control, the T/C (dose: 10.0 mg/kg/injection, schedule: Q01DX001 (ip), vehicle: saline) was 96 % of control and the T/C (dose: 20.0 mg/kg/injection, schedule: Q01DX001 (ip), vehicle: saline) was 96 % of control.
